Literature values as cited in patent US20040018260A1, “Novel botanical extract of Tripterygium Wilfordii Hook F” (Novemed Group Limited, priority 2002, published 2004).
“Also recorded” adds a separate entry of the source.

Legend:
[1] = in vitro and animal experiments; results called inconclusive
[2] = in vitro and animal experiments; results called inconclusive; remark: listed apart in the source
[3] = reported

Row | Structure (SMILES) | anti-inflammatory activity [1] | immunosuppressive activity [2] | carcinogenic or mutagenic [3]
1 | CC(C)[C@]12O[C@H]1[C@@H]1O[C@@]13[C@@]1(C)CCC4=C(COC4=O)[C@@H]1C[C@@H]1O[C@@]13C2=O [T7, Triptonide] | relatively low activities | relatively low activities | 
2 | CC(C)[C@]12O[C@H]1[C@@H]1O[C@]13[C@]1(O[C@H]1C[C@H]1C4=C(CC[C@@]13C)C(=O)OC4)[C@@H]2O [T10, triptolide] | most abundant and active compound | most abundant and active compound | potently carcinogenic or mutagenic; also recorded: carcinogenic
3 | CC(C)[C@]1(O)[C@H](O)[C@@H]2O[C@]23[C@]2(O[C@H]2C[C@H]2C4=C(CC[C@@]23C)C(=O)OC4)[C@@H]1O [T11, tripriolide] | highest anti-inflammatory activity | little immunosuppressive activity | 
